Measured values taken from ChEMBL document CHEMBL1201862, “PubChem BioAssay data set” (2004).
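Briefly, cells in 96-well plates were exposed to five compound concentrations for 48 h, and endpoints were estimated by linear interpolation. Here, GI50 denotes the concentration required for 50% inhibition of growth.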 Active and inactive are the calls of the source. Rule as the data show it: active = GI50 up to about 1.1 µM and inactive = higher. Where a SMILES comes first, the peptide text is derived from it. The star is where a group is joined. Boc = CC(C)(C)OC(=O)*

Legend:
Experiment in all cases: inhibition of tumour cell growth, NCI panel, 48 h
[1] = tested on: 786-0
[2] = tested on: EKVX
[3] = tested on: HCT-15
[4] = tested on: HOP-92
[5] = tested on: HT-29
[6] = tested on: IGROV-1
[7] = tested on: NCI-H23
[8] = tested on: OVCAR-8
[9] = tested on: PC-3
[10] = tested on: RPMI-8226
[11] = tested on: RXF 393
[12] = tested on: SF-268
[13] = tested on: SR
[14] = tested on: T47D
[15] = tested on: TK-10
[16] = tested on: A498
[17] = tested on: LOX IMVI
[18] = tested on: MCF7
[19] = tested on: SNB-75
[20] = tested on: CCRF-CEM

SMILES	GI50 [1]	GI50 [2]	GI50 [3]	GI50 [4]	GI50 [5]	GI50 [6]	GI50 [7]	GI50 [8]	GI50 [9]	GI50 [10]	GI50 [11]	GI50 [12]	GI50 [13]	GI50 [14]	GI50 [15]	GI50 [16]	GI50 [17]	GI50 [18]	GI50 [19]	GI50 [20]
CC(NC(=O)C(NC(=O)OC(C)(C)C)C(C)C)C(=O)NCC(=O)O (stereo not drawn) (Boc-Val-Ala-Gly-OH; configuration not given here)	> 100 µM (inactive)	> 100 µM (inactive)	> 100 µM	> 100 µM (inactive)	> 100 µM (inactive)	> 100 µM (inactive)	> 100 µM (inactive)	> 100 µM (inactive)	> 100 µM (inactive)	> 100 µM (inactive)	> 100 µM (inactive)	> 100 µM (inactive)	> 100 µM (inactive)	> 100 µM (inactive)	> 100 µM (inactive)					
COc1ccc(/C=C/c2cnccn2)cc1OC	> 10 µM (inactive)	> 10 µM (inactive)	> 10 µM	> 10 µM (inactive)	> 10 µM (inactive)	> 10 µM (inactive)	> 10 µM (inactive)	> 10 µM (inactive)	> 10 µM (inactive)		> 10 µM (inactive)	> 10 µM (inactive)		> 10 µM (inactive)	> 10 µM (inactive)	> 10 µM (inactive)	> 10 µM (inactive)	> 10 µM (inactive)	> 10 µM (inactive)	
Nc1nc(-c2ccccc2)nc2c1[n+]([O-])c1ccccc1[n+]2[O-]	> 100 µM (inactive)	> 100 µM (inactive)	> 100 µM		> 100 µM (inactive)	> 100 µM (inactive)	> 100 µM (inactive)	> 100 µM (inactive)	> 100 µM (inactive)	> 100 µM (inactive)	> 100 µM (inactive)	> 100 µM (inactive)		> 100 µM (inactive)	> 100 µM (inactive)	> 100 µM (inactive)	> 100 µM (inactive)	> 100 µM (inactive)		> 100 µM (inactive)
COC(=O)[C@]1(c2cc3ccccc3n2S(=O)(=O)c2ccccc2)CC2CN(C(=O)OCc3ccccc3)C1C1OC(C)(C)OC21 (some centres undefined)	> 100 µM (inactive)	> 100 µM (inactive)	> 100 µM	10.2 µM (inactive)	> 100 µM (inactive)	> 100 µM (inactive)	> 100 µM (inactive)	> 100 µM (inactive)	> 100 µM (inactive)	60.1 µM (inactive)	> 100 µM (inactive)				> 100 µM (inactive)		> 100 µM (inactive)	> 100 µM (inactive)	80.4 µM (inactive)	> 100 µM (inactive)
CC1(C)Cc2c(c3ccccc3c3nc4c(nc23)c2c(c3ccccc34)OC(C)(C)C2)O1	> 100 µM (inactive)	> 100 µM (inactive)	> 100 µM	> 100 µM (inactive)	> 100 µM (inactive)	> 100 µM (inactive)	> 100 µM (inactive)	> 100 µM (inactive)	> 100 µM (inactive)	> 100 µM (inactive)	> 100 µM (inactive)	> 100 µM (inactive)		> 100 µM (inactive)	> 100 µM (inactive)	> 100 µM (inactive)	> 100 µM (inactive)	> 100 µM (inactive)		> 100 µM (inactive)
CCCn1c(C23CC4CC(CC(C4)C2)C3)nc2ccc(Cl)cc2c1=O	34.2 µM (inactive)	23.9 µM (inactive)	45.6 µM	42.8 µM (inactive)	24.9 µM (inactive)	51.9 µM (inactive)	50.5 µM (inactive)	44.4 µM (inactive)	37.1 µM (inactive)	28.7 µM (inactive)	7.11 µM (inactive)	> 100 µM (inactive)		25.8 µM (inactive)	48.2 µM (inactive)	17.9 µM (inactive)	36.6 µM (inactive)	23.7 µM (inactive)		45.5 µM (inactive)
O=c1[nH]c(=O)n([C@@H]2O[C@H](CO)[C@@H](O)[C@H]2O)cc1F [5-FLUOROURIDINE]	0.0408 µM (active)	37.2 µM (inactive)	0.0367 µM		0.0407 µM (active)	0.0803 µM (active)	0.229 µM (active)	0.056 µM (active)	0.164 µM (active)	0.126 µM (active)	0.221 µM (active)	0.0716 µM (active)	0.0473 µM (active)	0.114 µM (active)	5.74 µM (inactive)	0.308 µM (active)	0.0556 µM (active)		2.25 µM (inactive)	0.057 µM (active)
COC(=O)C(COC(=O)/C=C/c1ccc(OC(C)=O)c(OC(C)=O)c1)OC(=O)/C=C/c1ccc(OC(C)=O)c(OC(C)=O)c1 (centres undefined)	11.8 µM (inactive)	17.5 µM (inactive)	5.38 µM	18 µM (inactive)	6.9 µM (inactive)	4.94 µM (inactive)	12 µM (inactive)	11.8 µM (inactive)	11.1 µM (inactive)	11.6 µM (inactive)	12.3 µM (inactive)	12.4 µM (inactive)	3.01 µM (inactive)		18.6 µM (inactive)	16.5 µM (inactive)	5.16 µM (inactive)	6.61 µM (inactive)		3.38 µM (inactive)
COc1c2c(c(O)c3c4c(c(C)cc13)C1OC3(C(OC)OC5CC(C)(O)C(OC6CC(C)(O)C(O)C(C)O6)C(C)O5)OC1C(OC)(O4)C31CO1)C(=O)C(O)CC2OC1CC(C)(O)C(OC(C)=O)C(C)O1 (centres undefined)	< 0.01 µM (active)	< 0.01 µM (active)	0.0767 µM	< 0.01 µM (active)	< 0.01 µM (active)	< 0.01 µM (active)	< 0.01 µM (active)	< 0.01 µM (active)		< 0.01 µM (active)	< 0.01 µM (active)	< 0.01 µM (active)	< 0.01 µM (active)		< 0.01 µM (active)	< 0.01 µM (active)	< 0.01 µM (active)		< 0.01 µM (active)	< 0.01 µM (active)
CCOc1ccc(NC(=O)CC2SC(Nc3ccc(C)cc3C)=NC2=O)cc1 (centres undefined)	> 100 µM (inactive)	> 100 µM (inactive)	> 100 µM	> 100 µM (inactive)	> 100 µM (inactive)	> 100 µM (inactive)	> 100 µM (inactive)	89.1 µM (inactive)		29.9 µM (inactive)	> 100 µM (inactive)	43.6 µM (inactive)	29.5 µM (inactive)		> 100 µM (inactive)	> 100 µM (inactive)	> 100 µM (inactive)		49.2 µM (inactive)	29.2 µM (inactive)
NC(=O)NNC(=O)c1nc[nH]c1[N+](=O)[O-]	> 100 µM (inactive)	> 100 µM (inactive)	> 100 µM		> 100 µM (inactive)	> 100 µM (inactive)	> 100 µM (inactive)	> 100 µM (inactive)	> 100 µM (inactive)	> 100 µM (inactive)	> 100 µM (inactive)	> 100 µM (inactive)		> 100 µM (inactive)	> 100 µM (inactive)	> 100 µM (inactive)	> 100 µM (inactive)	> 100 µM (inactive)	> 100 µM (inactive)	> 100 µM (inactive)
COc1ccc(-c2nc(N)nc(-c3cc(C)ccc3O)c2Cl)cc1	45.4 µM (inactive)	20.3 µM (inactive)	> 100 µM	55.1 µM (inactive)	> 100 µM (inactive)	> 100 µM (inactive)	50.6 µM (inactive)	43.2 µM (inactive)		> 100 µM (inactive)	37.2 µM (inactive)	26.4 µM (inactive)	> 100 µM (inactive)		32.7 µM (inactive)	43.7 µM (inactive)	58.9 µM (inactive)		25 µM (inactive)	> 100 µM (inactive)
CCOc1ccc(N/C(=C(/C(Cl)=C(/Cl)NCCO)[N+](=O)[O-])n2nnc3ccccc32)cc1	29.6 µM (inactive)	25.2 µM (inactive)	20.5 µM		29.9 µM (inactive)		17.5 µM (inactive)	18.3 µM (inactive)	25.7 µM (inactive)	30.7 µM (inactive)	16.2 µM (inactive)	20.1 µM (inactive)		18.2 µM (inactive)		31 µM (inactive)		19 µM (inactive)	60.1 µM (inactive)	5.57 µM (inactive)
CC1=CC(=O)/C(=C/Nc2nc(-c3cccc([N+](=O)[O-])c3)cs2)C(=O)O1	30.8 µM (inactive)	39.4 µM (inactive)	23 µM	> 100 µM (inactive)	89.9 µM (inactive)	38.4 µM (inactive)	60.5 µM (inactive)	> 100 µM (inactive)	> 100 µM (inactive)					77.1 µM (inactive)	1.93 µM (inactive)		39.2 µM (inactive)	41.6 µM (inactive)	35.9 µM (inactive)	
CCC(C)(O)c1cn(-c2cccc(S(=O)(=O)O)c2)nn1 (centres undefined)	> 100 µM (inactive)	> 100 µM (inactive)	> 100 µM	> 100 µM (inactive)	> 100 µM (inactive)	> 100 µM (inactive)	> 100 µM (inactive)	> 100 µM (inactive)		> 100 µM (inactive)	> 100 µM (inactive)	> 100 µM (inactive)	> 100 µM (inactive)		> 100 µM (inactive)	> 100 µM (inactive)	> 100 µM (inactive)		> 100 µM (inactive)	> 100 µM (inactive)
Cc1nc2c(O)cc3c4c(n(Cc5ccccc5)c3c2nc1C)C(=O)CCC4	15.1 µM (inactive)	> 100 µM (inactive)	> 100 µM	15.4 µM (inactive)	> 100 µM (inactive)		51.2 µM (inactive)	12.2 µM (inactive)	49.7 µM (inactive)	> 100 µM (inactive)	5.46 µM (inactive)	4.71 µM (inactive)	18 µM (inactive)		34 µM (inactive)	34 µM (inactive)	64.1 µM (inactive)	19.1 µM (inactive)		> 100 µM (inactive)
